{"source": "paper PMC7180456", "about": "“Multitarget Anticancer Agents Based on Histone Deacetylase and Protein Kinase CK2 Inhibitors” (Molecules, 2020)", "origin": "cited, not measured here", "key": {"CK2": {"tested_on": "CK2", "settings": "Figure 3; read-out: CK2 IC50 of previously described dual inhibitors; cited from earlier work"}, "HDAC1": {"tested_on": "HDAC1", "parameters": "method as in doi:10.1039/C6RA09717K", "settings": "Figure 3; read-out: HDAC1 IC50 of previously described dual inhibitors; cited from earlier work"}, "two mammalian cell lines": {"tested_on": "two mammalian cell lines", "parameters": "method as in doi:10.1039/C6RA09717K", "settings": "cited from earlier work"}, "HDAC-6": {"biological_target": "HDAC-6", "settings": "Figure 4; read-out: Ki, HDAC-6 inhibitor; cited from earlier work"}, "HDAC": {"tested_on": "HDAC", "parameters": "method as in PMID 29733427", "settings": "Figure 2; read-out: IC50 of FDA-approved HDAC inhibitors; cited from earlier work"}, "HL-60/adr line": {"tested_on": "HL-60/adr line", "parameters": "method as in PMID 17904109", "settings": "cited from earlier work"}, "HL-60/vinc line": {"tested_on": "HL-60/vinc line", "parameters": "method as in PMID 17904109", "settings": "cited from earlier work"}}}
{"smiles": "O=C(CCn1cc(CCn2nnc3c(Br)c(Br)c(Br)c(Br)c32)nn1)NO", "note": "[Compound 1]", "values": [{"measurement": "IC50", "setting": "CK2", "value": 5400, "unit": "nM"}, {"measurement": "IC50", "setting": "HDAC1", "value": 5000, "unit": "nM"}]}
{"smiles": "O=C(CCn1cc(CCn2nc3c(Br)c(Br)c(Br)c(Br)c3n2)nn1)NO", "note": "[Compound 2]", "values": [{"measurement": "IC50", "setting": "CK2", "value": 50000, "unit": "nM"}, {"measurement": "IC50", "setting": "HDAC1", "value": 2200, "unit": "nM"}, {"measurement": "cytotoxic activity LC50", "setting": "two mammalian cell lines", "value": "low micromolar"}]}
{"smiles": "CN1C(=O)C2Cc3c(c4ccccc4n3Cc3ccc(C(=O)NO)cc3)C(C2)C1=O", "note": "(stereo not shown) [Marbostat-100]", "values": [{"measurement": "Ki", "setting": "HDAC-6", "value": 0.7, "unit": "nM"}]}
{"smiles": "Cc1[nH]c2ccccc2c1CCNCc1ccc(/C=C/C(=O)NO)cc1", "note": "[Panobinostat]", "values": [{"measurement": "IC50", "setting": "HDAC", "value": "5 to 20", "unit": "nM"}]}
{"smiles": "C/C=C1\\NC(=O)[C@H]2CSSCC/C=C/[C@H](CC(=O)N[C@H](C(C)C)C(=O)N2)OC(=O)[C@H](C(C)C)NC1=O", "note": "[Romidepsin]", "values": [{"measurement": "IC50", "setting": "HDAC", "value": 36, "unit": "nM"}]}
{"smiles": "COc1cccc2c1C(=O)c1c(O)c3c(c(O)c1C2=O)C[C@@](O)(C(=O)CO)C[C@@H]3O[C@H]1C[C@H](N)[C@H](O)[C@H](C)O1", "note": "[doxorubicin]", "values": [{"measurement": "resistance of the MDR cell model to the drug", "setting": "HL-60/adr line", "value": 80, "unit": "fold"}, {"measurement": "resistance of the MDR cell model to the drug", "setting": "HL-60/vinc line", "value": 140, "unit": "fold"}]}
